Experimental data published in patent publication US20120289492A1, “METHODS OF TREATING MITOCHONDRIAL DISORDERS USING METALLOPORPHYRINS” (priority 2009, published 2012).

Legend:
[1] = mouse, in vivo, po, 15 mg/kg
Experimental: In another exemplary method, oral administration of AEOL11207 was examined for efficiently to penetrate the blood-brain barrier (BBB) and brain mitochondria. To determine if AEOL11207 penetrates the BBB, preliminary studies were conducted in mice following injection of AEOL 11207. Mice were given a single dose of the compound (15 mg/kg, p.o. AEOL 11207) or vehicle (control). At various times after injection, mice were perfused and brains (cortex) and plasma were extracted with methanol and samples analyzed by an HPLC method as described previously. […] FIGS. 3A and 3B illustrate plasma and brain concentrations of AEOL11207 following s.c. or p.o. administration. […]
FIGS. 3A-3B illustrate exemplary concentrations of AEOL11207 in the plasma (3A) and brains (3B) of the C57BL/6 mice at different times points after a single dose of AEOL11207 (15 mg/kg) administered by the s.c or p.o. route. […] FIG. 3C illustrates an exemplary chromatogram of AEOL 11207 levels measured by HPLC with UV detection at 450 nm in mitochondrial fractions of mouse forebrain 24 hr after AEOL11207 15 mg/kg s.c. as previously described. Recovery of AEOL11207 from mitochondrial samples was determined to be ˜98%. […]
Determination of metalloporphyrin levels AEOL11207 was measured by HPLC-UV following previously described methods (Liang, et al. (2007) J Neurosci 27, 4326-33).

[2] = test system: kainate-induced epileptogenesis in rats; test: Kainate-induced chronic epilepsy development (rat model of temporal lobe epilepsy); assay type: in vivo
Experimental: The rat model of temporal lobe epilepsy is initiated by a single injection of a chemoconvulasant agent which results in spontaneous epileptic seizure arise several days to weeks thereafter. Groups of rats administered vehicle, kainate (a chemoconvulsant used to initiate injury), kainate+AEOL11207 and AEOL11207 were monitored 6 weeks for behavioral seizures and indices of oxidative stress (GSH/GSSG, CoASH/CoASSG). AEOL11207 was administered at an arbitrary dose of 5 mg/kg, s.c. daily beginning 6 hr after injection of kainate (11 mg/kg). All of the rats in both groups experienced SE after kainate injection, and there was no difference in any of the characteristics of SE between the groups. […] The time to develop chronic epilepsy (latency to chronic epilepsy), spontaneous seizure frequency, severity and duration was determined.
In another exemplary experiment, pharmacological removal of ROS was examined for its inhibition on kainate-induced epileptogenesis. A pilot was performed in which groups of rats administered vehicle (n=4), kainate (n=6), kainate+AEOL11207(n=6) and AEOL11207 (n=4) were monitored 6 weeks for behavioral seizures (Table 1) and indices of oxidative stress (GSH/GSSG, CoASH/CoASSG) (FIG. 6).
AEOL11207 was administered at a dose of 5 mg/kg, s.c. daily beginning 6 hr after injection of kainate ([…]). All of the rats in both groups experienced SE after kainate injection, and there was no difference in any of the characteristics of SE between the groups. […] The time to develop chronic epilepsy (latency to chronic epilepsy), spontaneous seizure frequency, severity and duration was determined as previously described. […] None of the rats in the control or AEOL11207 alone groups developed seizures. […] FIG. 6 and Table 1 illustrate the effect of AEOL11207 on kainate-induced chronic epilepsy development (n=6/group) and oxidative stress (n=4-6 per group).

[3] = kainate rats, compared to controls
[4] = the 2 rats of the kainate+AEOL11207 group that developed epilepsy

COC(=O)c1c2nc(c(C(F)(F)F)c3ccc([n-]3)c(C(=O)OC)c3nc(c(C(F)(F)F)c4ccc1[n-]4)C=C3)C=C2.[Cl-].[Mn+3] [AEOL11207]
estimated concentration in the brain [1]: within the protective range
rats that developed seizures ([2]; AEOL11207 alone group, no kainate): None
rats that developed chronic epilepsy during 6 weeks ([2]; in comparison with two-thirds in the kainate group): one-third
Duration of seizures (sec.) ([2]; kainate + 5 mg/kg s.c. daily, kainate alone 33.3 ± 1.9): 28.3 ± 2.2*p < 0.05 sec.
CoASH/CoASSG ratio [2, 3]: significantly improved
GSH/GSSG ratio [2, 3]: significantly improved
decrease of seizure duration [2, 4]: ~15%
number of seizures per animal [2, 4]: no changes
